Earlier results in patent US20040204435A1, “Alternating treatment with topoisomerase I and topoisomerase II inhibitors” (priority 2003, published 2004).

Columns and labels:
[1] = test system: human tumor xenografts
[2] = for clinical effectiveness: cancer patients
[3] = mouse plasma
[4] = humans, plasma
[5] = carboxylate versus CPT (lactone)
[6] = not given; remark: listed apart in the source

Structure (SMILES) | effect on human tumor xenografts in nude mice [1] | clinical effectiveness [2] | solubility in water | also measured
CC[C@@]1(O)C(=O)OCc2c1cc1n(c2=O)Cc2cc3c(N)cccc3nc2-1 [9-aminocamptothecin] | completely eradicate | insufficiently effective |  | 
CC[C@@]1(O)C(=O)OCc2c1cc1n(c2=O)Cc2cc3c([N+](=O)[O-])cccc3nc2-1 [9NC, 9-nitrocamptothecin] | completely eradicate | less effective against human pancreas tumors in humans than against human cancer xenografts in nude mice |  | administered dose circulating as active lactone form [3]: Up to 50%; drug circulating as lactone [4]: 2-5%
CCC(O)(C(=O)O)c1cc2n(c(=O)c1CO)Cc1cc3ccccc3nc1-2 (stereo not shown) [CPT carboxylate] |  |  | soluble | anticancer activity relative to CPT [5]: ~10%
CC[C@@]1(O)C(=O)OCc2c1cc1n(c2=O)Cc2cc3ccccc3nc2-1 [CPT lactone] |  |  | insoluble | 
CC[C@@]1(O)C(=O)OCc2c1cc1n(c2=O)Cc2cc3ccccc3nc2-1 [CPT, Camptothecin] | completely eradicate | much less effective in cancer patients than in mice |  | dose-limiting toxicity ([2]; clinical trials (9NC: phase I-II)): diarrhea
CCc1c2c(nc3ccc(OC(=O)N4CCC(N5CCCCC5)CC4)cc13)-c1cc3c(c(=O)n1C2)COC(=O)[C@]3(O)CC [Camptosar, irinotecan] |  |  | water soluble | 
CC[C@@]1(O)C(=O)OCc2c1cc1n(c2=O)Cc2cc3c(CN(C)C)c(O)ccc3nc2-1 [Topotecan] |  |  | water soluble | 
CC[C@@](O)(C(=O)[O-])c1cc2n(c(=O)c1CO)Cc1cc3ccccc3nc1-2.[Na+] [sodium salt of CPT] |  |  |  | toxicities ([6]; in vivo): myelosuppression, diarrhea and cystitis; clinical benefit ([6]; phase I and II trials 1970-1972): no clinical benefit
